Measurements: patent US20260158002A1, “APPLICATION OF COMPOSITION CONTAINING EDARAVONE AND DEXBORNEOL IN IMPROVING OR TREATING COGNITIVE IMPAIRMENT” (NEURODAWN PHARMACEUTICAL CO., LTD., priority 2021, published 2026)

How the values were obtained:
5×FAD transgenic mice = experiment: Y maze test in 5×FAD transgenic mice; type: in vivo, mouse; conditions: 5×FAD mice; edaravone 6 mg/kg or composition 7.5 mg/kg i.p. once daily for 16 weeks
Description: In the experiment, the animals were divided into 4 groups. Administration was performed on the mice in each group from 8 weeks of age. After 16 weeks of continuous daily administration, water maze and Y maze behavioral tests were performed. After the behavioral tests were completed, the animals were sacrificed, and brain slice electrophysiology and AD pathology within the brain were tested, including the test of Aβ plaques, biomarkers such as GFAP and Iba-1, p-Tau, etc.
5×FAD: edaravone group: ten 5×FAD mice were given edaravone ( ? ®) 6 mg/kg via i.p. at a dose of 10.0 mL/kg once daily.
5×FAD: composition group: ten 5×FAD mice were given 7.5 mg/kg edaravone and dexborneol concentrated solution for injection ( ? ®) (edaravone:dexborneol=4:1, containing 6 mg/kg edaravone and 1.5 mg/kg dexborneol) at a dose of 10.0 ml/kg once daily. […]
Testing: After 1 h of training, the baffle was removed, the channel of the Y maze was wiped with alcohol to remove the odor of the previous mouse, the mouse to be tested was placed in the same position for 5 min and video recording was performed, and the number of times the mouse entered the newly opened arm as a percentage of the total number of times it entered the three arms was recorded in the test.
Data were expressed as Mean±SEM. […]

primary cortical neurons = experiment: Aβ1-42-induced primary cortical neuronal injury test (Luminescent Cell Viability Assay); type: cell-based, rat; conditions: single agent, pre-incubation 30 min before oligomerized Aβ1-42 50 μM, 24 h; edaravone 3.7 to 100 μM, dexborneol 1.2 to 100 μM; vs DMSO group
Description: A SD pregnant rat at 18 days of pregnancy was sacrificed by cervical dislocation, the uteruses of the rat were dissected, the brain of E18 fetal rat was taken out, the cerebral cortical tissue of the fetal rat was isolated into an ice-cold DMEM, the meninge and blood vessels were removed from the cortical tissue under a dissecting microscope, the cortical tissue was transferred to an ice-cold DMEM and minced (about 1 mm^3), and digested with trypsin at 37° C. for 10 min, the digestion was terminated with FBS, a Pasteur pipette was used to perform gentle pipetting and dispersing, and screening was then performed using a 200-mesh sieve. […] The cells were counted by a hemocytometer, diluted to 5×10^5 cells/ml with a complete medium, and seeded in a 96-well plate coated with PDL (100 μL/well) for culture. […]
The medium of the in vitro matured primary neurons was replaced with a complete medium containing different concentrations (1.2, 3.7, 11.1, 33.3, 100.0 μM) of edaravone (E), dexborneol (B) or an edaravone and dexborneol composition (EB), after incubation at 37° C. for 30 min, oligomerized Aβ1-42 (final concentration of 50 μM) was added, the culture was continued for 24 h, and the neuronal viability was tested. […] LUMbackground is the background reading of the cell-free medium well into which Luminescent Cell Viability Assay kit is added. […]

CC1=NN(c2ccccc2)C(=O)C1 [edaravone, 3-methyl-1-phenyl-2-pyrazolin-5-one]
number of times the mouse entered the newly opened arm in Y maze, vs solvent control (5×FAD transgenic mice): could significantly increase the number of times the mouse entered the newly opened arm | inhibiting Aβ-induced neurotoxicity, increasing the cell viability (primary cortical neurons): capable of inhibiting Aβ-induced neurotoxicity in a concentration-dependent manner
